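Growth conditions: 96-well plates. Treatment: test compound, 48 hours, 5 concentrations. Analysis: linear interpolation between bracketing concentrations; unreached endpoints set to highest concentration. At the GI50, growth is halved.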 Activity calls are given as the source filed them. Rule as the data show it: active = GI50 up to about 1.1 µM and inactive = higher.
Experiments:
Assay in all cases: DTP human tumour cell line panel, 48 h
SW-620 = test system: SW-620
BT-549 = test system: BT-549
T47D = test system: T47D
SF-539 = test system: SF-539
UO-31 = test system: UO-31
OVCAR-5 = test system: OVCAR-5
MDA-MB-231 = test system: MDA-MB-231
HOP-62 = test system: HOP-62
SK-MEL-2 = test system: SK-MEL-2
RXF 393 = test system: RXF 393
UACC-257 = test system: UACC-257
SK-MEL-5 = test system: SK-MEL-5
MDA-N = test system: MDA-N
HOP-92 = test system: HOP-92
KM12 = test system: KM12
ACHN = test system: ACHN
SF-268 = test system: SF-268
MDA-MB-435 = test system: MDA-MB-435
K562 = test system: K562

Measured: GI50

COc1ccc(C(=C2C(=O)OC(=O)C2=C(C)C)c2ccc(OC)cc2)cc1
inactive: SW-620 > 100 µM | BT-549 70.5 µM | T47D > 100 µM | SF-539 > 100 µM | UO-31 > 100 µM | OVCAR-5 79.1 µM | MDA-MB-231 > 100 µM | HOP-62 45.8 µM | SK-MEL-2 53.8 µM | RXF 393 > 100 µM | UACC-257 > 100 µM | SK-MEL-5 > 100 µM | MDA-N > 100 µM | HOP-92 > 100 µM | KM12 29.2 µM | ACHN > 100 µM | SF-268 > 100 µM | MDA-MB-435 > 100 µM

Cc1cc(C)nc(NS(=O)(=O)c2ccc(Nc3c4ccccc4nc4c(C(=O)NC(CO)(CO)CO)cccc34)cc2)n1
inactive: SW-620 38.5 µM | BT-549 21.8 µM | T47D 37.8 µM | UO-31 85.1 µM | OVCAR-5 31.5 µM | MDA-MB-231 32.1 µM | HOP-62 26.7 µM | SK-MEL-2 20.8 µM | UACC-257 42 µM | SK-MEL-5 20.6 µM | K562 31.4 µM | MDA-N 24.1 µM | HOP-92 23.6 µM | KM12 17.9 µM | ACHN 34 µM | SF-268 29.5 µM | MDA-MB-435 24.9 µM

COC(=O)c1ccc(Oc2nc3ccccc3nc2-c2cccs2)cc1
inactive: SW-620 46.8 µM | BT-549 45.7 µM | T47D 60.8 µM | SF-539 5.71 µM | UO-31 > 100 µM | OVCAR-5 > 100 µM | MDA-MB-231 21.3 µM | HOP-62 11.9 µM | SK-MEL-2 > 100 µM | RXF 393 4.79 µM | UACC-257 > 100 µM | SK-MEL-5 > 100 µM | K562 > 10 µM | MDA-N > 100 µM | KM12 > 100 µM | ACHN 71.3 µM | SF-268 21.3 µM | MDA-MB-435 > 100 µM

O=S(=O)(O)c1c(Cl)cc(O)c2ncccc12
inactive: SW-620 > 100 µM | BT-549 > 100 µM | T47D > 100 µM | SF-539 > 100 µM | UO-31 > 100 µM | OVCAR-5 > 100 µM | MDA-MB-231 > 100 µM | HOP-62 > 100 µM | SK-MEL-2 > 100 µM | RXF 393 > 100 µM | UACC-257 > 100 µM | SK-MEL-5 > 100 µM | K562 > 100 µM | MDA-N > 100 µM | HOP-92 > 100 µM | KM12 > 100 µM | ACHN > 100 µM | MDA-MB-435 > 100 µM

Cc1cc2c(C)cc(=O)[nH]c2cc1N
inactive: SW-620 > 100 µM | BT-549 > 100 µM | T47D > 100 µM | SF-539 > 100 µM | UO-31 > 100 µM | OVCAR-5 > 100 µM | MDA-MB-231 46.9 µM | HOP-62 > 100 µM | RXF 393 > 100 µM | UACC-257 > 100 µM | SK-MEL-5 > 100 µM | K562 > 100 µM | MDA-N > 100 µM | HOP-92 > 100 µM | KM12 > 100 µM | ACHN > 100 µM | MDA-MB-435 > 100 µM

O=C1C(Cl)C2(CC(/C=C/c3ccccc3O)=NN2c2cccc(S(=O)(=O)O)c2)N1c1nc2ccccc2s1 (stereo not given)
inactive: SW-620 17.4 µM | BT-549 18.1 µM | T47D 17.4 µM | SF-539 16.9 µM | UO-31 13.1 µM | OVCAR-5 22.3 µM | MDA-MB-231 22.5 µM | SK-MEL-2 16.8 µM | RXF 393 37.6 µM | UACC-257 16.1 µM | SK-MEL-5 12.1 µM | K562 20.2 µM | MDA-N 18.6 µM | HOP-92 19.7 µM | KM12 14.8 µM | ACHN 20.2 µM | SF-268 16 µM | MDA-MB-435 15.1 µM

CC1=NN(c2nc(N)nc(/C(C#N)=C/c3cccn3-c3cc(Cl)cc(Cl)c3)n2)C(C)(C)C1
inactive: SW-620 > 100 µM | BT-549 > 100 µM | T47D > 100 µM | SF-539 > 100 µM | UO-31 > 100 µM | OVCAR-5 > 100 µM | MDA-MB-231 41.2 µM | HOP-62 10.1 µM | SK-MEL-2 > 100 µM | RXF 393 > 100 µM | UACC-257 > 100 µM | SK-MEL-5 > 100 µM | MDA-N > 100 µM | HOP-92 > 100 µM | KM12 > 100 µM | ACHN > 100 µM | SF-268 15.5 µM | MDA-MB-435 > 100 µM

COC(=O)c1c(C(=O)OC)c2c3ccccc3n(C)c2c2c1c1ccccc1n2C
inactive: SW-620 > 100 µM | BT-549 > 100 µM | T47D > 100 µM | SF-539 45.9 µM | UO-31 16.2 µM | OVCAR-5 61.1 µM | MDA-MB-231 17.1 µM | HOP-62 19.3 µM | SK-MEL-2 46.8 µM | UACC-257 > 100 µM | SK-MEL-5 74.5 µM | K562 > 100 µM | MDA-N > 100 µM | HOP-92 > 100 µM | KM12 > 100 µM | ACHN > 100 µM | MDA-MB-435 > 100 µM

COc1cccc(-c2nc(N)c(C#N)c3c2CCS(=O)(=O)c2ccc(C)cc2-3)c1
inactive: SW-620 > 34.1 µM | BT-549 52 µM | T47D 43.2 µM | SF-539 33.6 µM | UO-31 40.3 µM | OVCAR-5 > 100 µM | MDA-MB-231 21.8 µM | HOP-62 30.2 µM | SK-MEL-2 38.3 µM | UACC-257 34.1 µM | SK-MEL-5 5.81 µM | K562 3.21 µM | MDA-N 3.08 µM | HOP-92 68.7 µM | KM12 7.85 µM | ACHN > 100 µM | SF-268 31.6 µM | MDA-MB-435 4.85 µM

CN(C)c1ccc(/C=C2\CCCCCC2=O)cc1
inactive: SW-620 > 100 µM | BT-549 81.5 µM | T47D 38.5 µM | SF-539 > 100 µM | UO-31 50.6 µM | OVCAR-5 > 100 µM | MDA-MB-231 32.7 µM | HOP-62 66.7 µM | SK-MEL-2 > 100 µM | RXF 393 > 100 µM | UACC-257 74.3 µM | SK-MEL-5 56 µM | K562 > 100 µM | MDA-N > 100 µM | KM12 > 100 µM | ACHN 58.7 µM | SF-268 > 100 µM | MDA-MB-435 > 100 µM

C[N+]1(CCC(=O)c2ccco2)CC2CCC(CC2)C1 (stereo not given)
inactive: SW-620 > 100 µM | BT-549 > 100 µM | T47D > 100 µM | SF-539 > 100 µM | UO-31 > 100 µM | OVCAR-5 > 100 µM | MDA-MB-231 > 100 µM | SK-MEL-2 > 100 µM | RXF 393 > 100 µM | UACC-257 > 100 µM | SK-MEL-5 > 100 µM | K562 > 100 µM | MDA-N > 100 µM | HOP-92 > 100 µM | KM12 > 100 µM | ACHN > 100 µM | SF-268 > 100 µM | MDA-MB-435 > 100 µM

From ChEMBL document CHEMBL1201862, “PubChem BioAssay data set” (2004)
